# Laboratory results reported in patent US20240239804A1, “FUROINDAZOLE DERIVATIVES AS ANTAGONISTS OR INHIBITORS OF GPR84” (Bayer Aktiengesellschaft, priority 2021, published 2024).
# pIC50: −log10 of the molar value.
# Target: T1, human GPR84 receptor (Homo sapiens, UniProt Q9NQS5)
# T1 construct: frozen aliquots prepared by acCELLerate; host or cells: CHO-K1
# Experiment: cAMP HTRF assay for identification of cellular GPR84 antagonists
# Type: cell-based
# Settings: CHO-K1 cells stably expressing human GPR84; Forskolin plus agonist 6-OAU; cAMP HTRF readout; average or median values
# From the text: cAMP HTRF® Assay for Identification of Cellular GPR84 Antagonists
# By using a Homogenous Time-Resolved Fluorescence (HTRF®) based assay (#62AM5PEJ, Cisbio, Condolet, France) the inhibition of the Gi-coupled GPR84 receptor can be detected. CHO-K1 cells stably expressing human GPR84 receptor (purchased from DiscoveRx, now Eurofins) were used and treated with Forskolin (F6886, Sigma, Germany) to stimulate membrane adenylyl cyclases and thereby unspecific cAMP formation. Activation of the Gi-coupled GPR84 by a natural or small molecule agonist (e.g. 6-n-octyl aminouracile, inhouse) results in inhibition of cellular cAMP formation which can be released again by antagonists to this receptor. Detection and quantification of cellular cAMP levels in this HTRF assay is achieved by interaction between a fluorescent cAMP tracer (cAMP-d2) and an Eu-cryptate labelled anti-cAMP antibody. Following excitation at 337 nm this pairing allows for the generation of a fluorescence resonance energy transfer (FRET) between the partners and results in FRET induced emissions at 665 nm and 620 nm, the latter representing background signal by Eu-cryptate labelled anti-cAMP antibody. Maximal signal is obtained in the absence of any cellular cAMP (no competition for the binding of the tracer to the antibody). Given the combination of the Gi coupling properties of GPR84 and the competitive nature of the detection system agonist treatment should result in an increase in the HTRF signal due to lowered cAMP levels. Any signal decrease in the presence of Forskolin, agonist and compound are indicative of antagonist mediated abrogation of GPR84 signalling.
# For the assay, frozen aliquots of CHO-K1 cells expressing hGPR84 (prepared by acCELLerate, Hamburg, Germany) were thawed and a cell suspension (1.67E+06 cells/mL) in assay media (Ham's F12 Nutrient Mix, Thermo Fisher Scientific, Waltham, USA; 5% fetal calf serum, Biomol, Hamburg, Germany) containing cAMP-d2 (dilution 1:20, supplied with the kit #62AM5PEJ, Cisbio, Condolet, France) was prepared. After recovery of cells for 20 minutes at 37° C., 3 μL/well cell suspension including cAMP-d2 were added to a pre-dispensed assay plate (Greiner Bio-One, Kremsmuenster, Austria) containing 50 nl/well test compound in 100% DMSO or 100% DMSO as control. This was followed by a 30 minute incubation step at room temperature. The stimulation time was started by addition of 2 μL/well assay media containing 2.5×EC80 agonist 6-OAU and 2.5×EC90 Forskolin (negative control: 2.5×EC90 Forskolin in assay media) and was continued for 30 minutes at room temperature. The reaction was stopped by addition of 3 μL/well lysis buffer containing cAMP Eu-Cryptate antibody (dilution 1:20) (both supplied with the kit #62AM5PEJ, Cisbio, Condolet, France). To enable complete lysis, plates were incubated for 60 minutes at room temperature before measurement in an HTRF reader, e.g. a PHERAstar (BMG Labtech, Ortenberg, Germany).
# From the fluorescence emissions at 665 nm (FRET) and at 620 nm (background signal of Eu-cryptate) the ratio (emission at 665 nm divided by emission at 620 nm×10000) was calculated and the data were normalized (reaction without test compound, only 100% DMSO=0% inhibition; all other assay components except agonist=100% inhibition). For dose response testing on the same microtiter plate, compounds were tested at 11 different concentrations in the range of 20 μM to 0.07 nM (20 μM, 5.7 μM, 1.6 μM, 0.47 μM, 0.13 μM, 38 nM, 11 nM, 3.1 nM, 0.89 nM, 0.25 and 0.07 nM; dilution series prepared before the assay at the level of the 100-fold conc. stock solutions by serial 1:3.5 dilutions in 100% DMSO) in duplicate values for each concentration. IC50 values were calculated by 4-parameter fitting using a commercial software package (Genedata Screener, Basel, Switzerland).
# Examples were tested in selected biological assays one or more times. […]
# T1 sequence (Q9NQS5 whole entry): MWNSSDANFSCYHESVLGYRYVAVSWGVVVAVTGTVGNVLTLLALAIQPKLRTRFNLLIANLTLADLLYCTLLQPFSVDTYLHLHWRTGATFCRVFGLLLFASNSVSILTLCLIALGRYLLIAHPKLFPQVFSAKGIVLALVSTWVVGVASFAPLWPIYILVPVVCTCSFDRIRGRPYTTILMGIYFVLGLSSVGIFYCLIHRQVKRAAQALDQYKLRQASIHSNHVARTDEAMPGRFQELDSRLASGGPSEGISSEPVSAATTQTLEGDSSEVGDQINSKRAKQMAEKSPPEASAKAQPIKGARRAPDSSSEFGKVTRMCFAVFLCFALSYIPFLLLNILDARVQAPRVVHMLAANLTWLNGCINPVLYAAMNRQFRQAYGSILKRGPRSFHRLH
row,Compound,pIC50
1,"CC(=O)Nc1ccc(CNC(=O)c2oc3c(c2C)-c2nn(Cc4ccc(Cl)cc4)cc2CC3)cc1 [Example 43, N-[(4-acetamidophenyl)methyl]-2-[(4-chlorophenyl)methyl]-8-methyl-4,5-dihydro-2H-furo[2,3-g]indazole-7-carboxamide]",6.10
2,"Cc1c(C(=O)NCc2cccn2C)oc2c1-c1nn(Cc3ccc(Cl)cc3)cc1CC2 [Example 44, 2-[(4-chlorophenyl)methyl]-8-methyl-N-[(1-methyl-1H-pyrrol-2-yl)methyl]-4,5-dihydro-2H-furo[2,3-g]indazole-7-carboxamide]",6.05
3,"Cc1c(C(=O)NCc2ccncc2)oc2c1-c1nn(Cc3ccc(Cl)cc3)cc1CC2 [Example 45, 2-[(4-chlorophenyl)methyl]-8-methyl-N-[(pyridin-4-yl)methyl]-4,5-dihydro-2H-furo[2,3-g]indazole-7-carboxamide]",5.84
4,"Cc1c(C(=O)NCc2ccnn2C)oc2c1-c1nn(Cc3ccc(Cl)cc3)cc1CC2 [Example 46, 2-[(4-chlorophenyl)methyl]-8-methyl-N-[(1-methyl-1H-pyrazol-5-yl)methyl]-4,5-dihydro-2H-furo[2,3-g]indazole-7-carboxamide]",5.78
5,"Cc1c(C(=O)NCc2cnn(C)c2)oc2c1-c1nn(Cc3ccc(Cl)cc3)cc1CC2 [Example 47, 2-[(4-chlorophenyl)methyl]-8-methyl-N-[(1-methyl-1H-pyrazol-4-yl)methyl]-4,5-dihydro-2H-furo[2,3-g]indazole-7-carboxamide]",5.73
6,"Cc1c(C(=O)NCC(N)=O)oc2c1-c1nn(Cc3ccc(Cl)cc3)cc1CC2 [Example 48, N-(2-amino-2-oxoethyl)-2-[(4-chlorophenyl)methyl]-8-methyl-4,5-dihydro-2H-furo[2,3-g]indazole-7-carboxamide]",5.67
7,"Cc1c(C(=O)N2CC(Cc3ccccc3)C2)oc2c1-c1nn(Cc3ccc(Cl)cc3)cc1CC2 [Example 49, (3-benzylazetidin-1-yl){2-[(4-chlorophenyl)methyl]-8-methyl-4,5-dihydro-2H-furo[2,3-g]indazol-7-yl}methanone]",5.59
8,"Cc1c(C(=O)NCc2cnn3ccccc23)oc2c1-c1nn(Cc3ccc(Cl)cc3)cc1CC2 [Example 50, 2-[(4-chlorophenyl)methyl]-8-methyl-N-[(pyrazolo[1,5-a]pyridin-3-yl)methyl]-4,5-dihydro-2H-furo[2,3-g]indazole-7-carboxamide]",5.57
9,"Cc1c(C(=O)NCC2CC2)oc2c1-c1nn(Cc3ccc(Cl)cc3)cc1CC2 [Example 51, 2-[(4-chlorophenyl)methyl]-N-(cyclopropylmethyl)-8-methyl-4,5-dihydro-2H-furo[2,3-g]indazole-7-carboxamide]",5.57
10,"Cc1c(C(=O)NCC2CCOCC2)oc2c1-c1nn(Cc3ccc(Cl)cc3)cc1CC2 [Example 52, 2-[(4-chlorophenyl)methyl]-8-methyl-N-[(oxan-4-yl)methyl]-4,5-dihydro-2H-furo[2,3-g]indazole-7-carboxamide]",5.53
11,"Cc1c(C(=O)NCc2nccn2C)oc2c1-c1nn(Cc3ccc(Cl)cc3)cc1CC2 [Example 53, 2-[(4-chlorophenyl)methyl]-8-methyl-N-[(1-methyl-1H-imidazol-2-yl)methyl]-4,5-dihydro-2H-furo[2,3-g]indazole-7-carboxamide]",5.52
12,"Cc1c(C(=O)NCc2cncn2C)oc2c1-c1nn(Cc3ccc(Cl)cc3)cc1CC2 [Example 54, 2-[(4-chlorophenyl)methyl]-8-methyl-N-[(1-methyl-1H-imidazol-5-yl)methyl]-4,5-dihydro-2H-furo[2,3-g]indazole-7-carboxamide]",5.47
13,"Cc1c(C(=O)NCCN2CCOCC2)oc2c1-c1nn(Cc3ccc(Cl)cc3)cc1CC2 [Example 55, 2-[(4-chlorophenyl)methyl]-8-methyl-N-[2-(morpholin-4-yl)ethyl]-4,5-dihydro-2H-furo[2,3-g]indazole-7-carboxamide]",5.38
14,"Cc1c(C(=O)NCCC(N)=O)oc2c1-c1nn(Cc3ccc(Cl)cc3)cc1CC2 [Example 56, N-(3-amino-3-oxopropyl)-2-[(4-chlorophenyl)methyl]-8-methyl-4,5-dihydro-2H-furo[2,3-g]indazole-7-carboxamide]",5.31
15,"Cc1c(C(=O)NCCc2ccccc2)oc2c1-c1nn(Cc3ccc(Cl)cc3)cc1CC2 [Example 57, 2-[(4-chlorophenyl)methyl]-8-methyl-N-(2-phenylethyl)-4,5-dihydro-2H-furo[2,3-g]indazole-7-carboxamide]",5.30
16,"Cc1c(C(=O)NCCO)oc2c1-c1nn(Cc3ccc(Cl)cc3)cc1CC2 [Example 58, 2-[(4-chlorophenyl)methyl]-N-(2-hydroxyethyl)-8-methyl-4,5-dihydro-2H-furo[2,3-g]indazole-7-carboxamide]",5.28
17,"Cc1c(C(=O)NCC2CCS(=O)(=O)C2)oc2c1-c1nn(Cc3ccc(Cl)cc3)cc1CC2 (stereo not drawn) [Example 59, 2-(4-chlorobenzyl)-N-[(1,1-dioxidotetrahydrothiophen-3-yl)methyl]-8-methyl-4,5-dihydro-2H-furo[2,3-g]indazole-7-carboxamide]",5.28
18,"Cc1c(C(=O)NCC(C)(C)O)oc2c1-c1nn(Cc3ccc(Cl)cc3)cc1CC2 [Example 60, 2-[(4-chlorophenyl)methyl]-N-(2-hydroxy-2-methylpropyl)-8-methyl-4,5-dihydro-2H-furo[2,3-g]indazole-7-carboxamide]",5.25
19,"Cc1c(C(=O)N2CCc3ccccc3C2)oc2c1-c1nn(Cc3ccc(Cl)cc3)cc1CC2 [Example 61, {2-[(4-chlorophenyl)methyl]-8-methyl-4,5-dihydro-2H-furo[2,3-g]indazol-7-yl}(3,4-dihydroisoquinolin-2(1H)-yl)methanone]",5.22
20,"CC(=O)N1CCN(C(=O)c2oc3c(c2C)-c2nn(Cc4ccc(Cl)cc4)cc2CC3)CC1 [Example 62, 1-(4-{2-[(4-chlorophenyl)methyl]-8-methyl-4,5-dihydro-2H-furo[2,3-g]indazole-7-carbonyl}piperazin-1-yl)ethan-1-one]",5.21
21,"Cc1c(C(=O)NCC[S+](C)[O-])oc2c1-c1nn(Cc3ccc(Cl)cc3)cc1CC2 (stereo not drawn) [Example 63, 2-[(4-chlorophenyl)methyl]-NV-[2-(methanesulfinyl)ethyl]-8-methyl-4,5-dihydro-2H-furo[2,3-g]indazole-7-carboxamide]",5.21
22,"Cc1c(C(=O)NCCCO)oc2c1-c1nn(Cc3ccc(Cl)cc3)cc1CC2 [Example 64, 2-[(4-chlorophenyl)methyl]-N-(3-hydroxypropyl)-8-methyl-4,5-dihydro-2H-furo[2,3-g]indazole-7-carboxamide]",5.18
23,"Cc1c(C(=O)NCC(F)F)oc2c1-c1nn(Cc3ccc(Cl)cc3)cc1CC2 [Example 65, 2-[(4-chlorophenyl)methyl]-N-(2,2-difluoroethyl)-8-methyl-4,5-dihydro-2H-furo[2,3-g]indazole-7-carboxamide]",5.13
24,"Cc1c(C(=O)N(C)Cc2ccncc2)oc2c1-c1nn(Cc3ccc(Cl)cc3)cc1CC2 [Example 66, 2-[(4-chlorophenyl)methyl]-/,8-dimethyl-N-[(pyridin-4-yl)methyl]-4,5-dihydro-2H-furo[2,3-g]indazole-7-carboxamide]",5.12
